Values after ≈ are worked out from the molar mass of the structure shown.
Assays:
Assay type in all cases: cell-based
[1] = tested on: S. aureus (UAMS-1625 strain); experiment: MIC by broth microdilution against S. aureus; settings: Staphylococcus aureus, read-out: MIC S. aureus
[2] = tested on: A. baumannii (HUMC1 strain); experiment: MIC by broth microdilution against A. baumannii in RPMI + 10% FCS; settings: Acinetobacter baumannii; HUMC1 strain; RPMI + 10% FCS; read-out: MIC A. baumannii
[3] = tested on: M. abscessus subsp. abscessus ATCC 19977; experiment: MIC against M. abscessus in Middlebrook 7H9 + ADC; settings: Mycobacteroides abscessus, ATCC19977; ATCC 19977; 7H9 + ADC; read-out: MIC M. abscessus

SMILES: CO[C@H]1/C=C/O[C@@]2(C)Oc3c(C)c(O)c4c(c3C2=O)C2=NC3(CCN(CC(C)C)CC3)NC2=C(NC(=O)/C(C)=C\C=C\[C@H](C)[C@H](O)[C@@H](C)[C@@H](O)[C@@H](C)[C@H](OC(=O)CC(=O)NCC2CCN(C)CC2)[C@@H]1C)C4=O [Compound 5]
- MIC [1]: 0.125 µg/mL (≈ 0.125 µM)
- MIC [2]: ≤ 0.002 µg/mL
- MIC [3]: 1 µg/mL

SMILES: CO[C@H]1/C=C/O[C@@]2(C)Oc3c(C)c(O)c4c(c3C2=O)C2=NC3(CCN(CC(C)C)CC3)NC2=C(NC(=O)/C(C)=C\C=C\[C@H](C)[C@H](O)[C@@H](C)[C@@H](O)[C@@H](C)[C@H](OC(=O)CC(=O)NC2CCN(C)CC2)[C@@H]1C)C4=O [Compound 6]
- MIC [1]: 0.03 µg/mL (≈ 0.0304 µM)
- MIC [2]: ≤ 0.002 µg/mL
- MIC [3]: 1 µg/mL

SMILES: CO[C@H]1/C=C/O[C@@]2(C)Oc3c(C)c(O)c4c(c3C2=O)C2=NC3(CCN(CC(C)C)CC3)NC2=C(NC(=O)/C(C)=C\C=C\[C@H](C)[C@H](O)[C@@H](C)[C@@H](O)[C@@H](C)[C@H](OC(=O)CC(=O)N2CCC(N(C)C)CC2)[C@@H]1C)C4=O [Compound 7]
- MIC [1]: 0.016 µg/mL (≈ 0.016 µM)
- MIC [2]: ≤ 0.002 µg/mL
- MIC [3]: 1 µg/mL

SMILES: CO[C@H]1/C=C/O[C@@]2(C)Oc3c(C)c(O)c4c(c3C2=O)C2=NC3(CCN(CC(C)C)CC3)NC2=C(NC(=O)/C(C)=C\C=C\[C@H](C)[C@H](O)[C@@H](C)[C@@H](O)[C@@H](C)[C@H](OC(=O)CC(=O)N2CCCCC2)[C@@H]1C)C4=O [Compound 8]
- MIC [1]: 0.016 µg/mL (≈ 0.0167 µM)
- MIC [2]: 0.004 µg/mL
- MIC [3]: 0.5 µg/mL

SMILES: CO[C@H]1/C=C/O[C@@]2(C)Oc3c(C)c(O)c4c(c3C2=O)C2=NC3(CCN(CC(C)C)CC3)NC2=C(NC(=O)/C(C)=C\C=C\[C@H](C)[C@H](O)[C@@H](C)[C@@H](O)[C@@H](C)[C@H](OC(=O)CC(=O)N2CCN(C)CC2)[C@@H]1C)C4=O [Compound 10]
- MIC [1]: 0.016 µg/mL (≈ 0.0164 µM)
- MIC [2]: ≤ 0.002 µg/mL
- MIC [3]: 1 µg/mL

SMILES: CO[C@H]1/C=C/O[C@@]2(C)Oc3c(C)c(O)c4c(c3C2=O)C2=NC3(CCN(CC(C)C)CC3)NC2=C(NC(=O)/C(C)=C\C=C\[C@H](C)[C@H](O)[C@@H](C)[C@@H](O)[C@@H](C)[C@H](OC(=O)CC(=O)N2CCN(c3ccccc3S(N)(=O)=O)CC2)[C@@H]1C)C4=O [Compound 12]
- MIC [1]: 0.125 µg/mL (≈ 0.112 µM)
- MIC [2]: 0.03 µg/mL
- MIC [3]: 0.5 µg/mL

SMILES: CO[C@H]1/C=C/O[C@@]2(C)Oc3c(C)c(O)c4c(c3C2=O)C2=NC3(CCN(CC(C)C)CC3)NC2=C(NC(=O)/C(C)=C\C=C\[C@H](C)[C@H](O)[C@@H](C)[C@@H](O)[C@@H](C)[C@H](OC(=O)CC(=O)N2CCC(N3CCN(C)C(=O)C3)CC2)[C@@H]1C)C4=O [Compound 15]
- MIC [1]: 0.016 µg/mL (≈ 0.0149 µM)
- MIC [2]: 0.004 µg/mL
- MIC [3]: 1 µg/mL

SMILES: CCOC(=O)CCNC(=O)CC(=O)O[C@H]1[C@H](C)[C@H](O)[C@H](C)[C@@H](O)[C@@H](C)/C=C/C=C(/C)C(=O)NC2=C3NC4(CCN(CC(C)C)CC4)N=C3c3c(c(O)c(C)c4c3C(=O)[C@@](C)(O/C=C/[C@H](OC)[C@H]1C)O4)C2=O [Compound 16]
- MIC [1]: 0.03 µg/mL (≈ 0.0303 µM)
- MIC [2]: 0.004 µg/mL
- MIC [3]: 2 µg/mL

SMILES: COC(=O)CNC(=O)CC(=O)O[C@H]1[C@H](C)[C@H](O)[C@H](C)[C@@H](O)[C@@H](C)/C=C/C=C(/C)C(=O)NC2=C3NC4(CCN(CC(C)C)CC4)N=C3c3c(c(O)c(C)c4c3C(=O)[C@@](C)(O/C=C/[C@H](OC)[C@H]1C)O4)C2=O [Compound 17]
- MIC [1]: 0.03 µg/mL (≈ 0.0312 µM)
- MIC [2]: ≤ 0.002 µg/mL
- MIC [3]: 2 µg/mL

SMILES: CO[C@H]1/C=C/O[C@@]2(C)Oc3c(C)c(O)c4c(c3C2=O)C2=NC3(CCN(CC(C)C)CC3)NC2=C(NC(=O)/C(C)=C\C=C\[C@H](C)[C@H](O)[C@@H](C)[C@@H](O)[C@@H](C)[C@H](OC(=O)CC(=O)Nc2ccc(CN3CCCCC3)cc2)[C@@H]1C)C4=O [Compound 18]
- MIC [1]: 0.06 µg/mL (≈ 0.0564 µM)
- MIC [2]: ≤ 0.002 µg/mL
- MIC [3]: 1 µg/mL

SMILES: CO[C@H]1/C=C/O[C@@]2(C)Oc3c(C)c(O)c4c(c3C2=O)C2=NC3(CCN(CC(C)C)CC3)NC2=C(NC(=O)/C(C)=C\C=C\[C@H](C)[C@H](O)[C@@H](C)[C@@H](O)[C@@H](C)[C@H](OC(=O)CC(=O)NCCN2CCN(C)CC2)[C@@H]1C)C4=O [Compound 20]
- MIC [1]: 0.03 µg/mL (≈ 0.0295 µM)
- MIC [2]: ≤ 0.002 µg/mL
- MIC [3]: 1 µg/mL

SMILES: CO[C@H]1/C=C/O[C@@]2(C)Oc3c(C)c(O)c4c(c3C2=O)C2=NC3(CCN(CC(C)C)CC3)NC2=C(NC(=O)/C(C)=C\C=C\[C@H](C)[C@H](O)[C@@H](C)[C@@H](O)[C@@H](C)[C@H](OC(=O)CC(=O)NCCN2CCOCC2)[C@@H]1C)C4=O [Compound 23]
- MIC [1]: 0.03 µg/mL (≈ 0.0299 µM)
- MIC [2]: ≤ 0.002 µg/mL
- MIC [3]: 1 µg/mL

SMILES: CO[C@H]1/C=C/O[C@@]2(C)Oc3c(C)c(O)c4c(c3C2=O)C2=NC3(CCN(CC(C)C)CC3)NC2=C(NC(=O)/C(C)=C\C=C\[C@H](C)[C@H](O)[C@@H](C)[C@@H](O)[C@@H](C)[C@H](OC(=O)CC(=O)OCc2ccccc2)[C@@H]1C)C4=O [Compound 26]
- MIC [1]: 0.5 µg/mL (≈ 0.51 µM)
- MIC [2]: 0.03 µg/mL
- MIC [3]: 4 µg/mL

SMILES: CO[C@H]1/C=C/O[C@@]2(C)Oc3c(C)c(O)c4c(c3C2=O)C2=NC3(CCN(CC(C)C)CC3)NC2=C(NC(=O)/C(C)=C\C=C\[C@H](C)[C@H](O)[C@@H](C)[C@@H](O)[C@@H](C)[C@H](OC(=O)CC(=O)OCC(C)C)[C@@H]1C)C4=O [Compound 27]
- MIC [1]: 0.125 µg/mL (≈ 0.132 µM)
- MIC [2]: 0.016 µg/mL
- MIC [3]: 4 µg/mL

SMILES: CO[C@H]1/C=C/O[C@@]2(C)Oc3c(C)c(O)c4c(c3C2=O)C2=NC3(CCN(CC(C)C)CC3)NC2=C(NC(=O)/C(C)=C\C=C\[C@H](C)[C@H](O)[C@@H](C)[C@@H](O)[C@@H](C)[C@H](OC(=O)CC(=O)NCCCN(C)C)[C@@H]1C)C4=O [Compound 29]
- MIC [1]: 0.03 µg/mL (≈ 0.0308 µM)
- MIC [2]: ≤ 0.002 µg/mL
- MIC [3]: 1 µg/mL

SMILES: CO[C@H]1/C=C/O[C@@]2(C)Oc3c(C)c(O)c4c(c3C2=O)C2=NC3(CCN(CC(C)C)CC3)NC2=C(NC(=O)/C(C)=C\C=C\[C@H](C)[C@H](O)[C@@H](C)[C@@H](O)[C@@H](C)[C@H](OC(=O)CC(=O)NCCN(C)C)[C@@H]1C)C4=O [Compound 30]
- MIC [1]: 0.03 µg/mL (≈ 0.0312 µM)
- MIC [2]: ≤ 0.002 µg/mL
- MIC [3]: 1 µg/mL

SMILES: CO[C@H]1/C=C/O[C@@]2(C)Oc3c(C)c(O)c4c(c3C2=O)C2=NC3(CCN(CC(C)C)CC3)NC2=C(NC(=O)/C(C)=C\C=C\[C@H](C)[C@H](O)[C@@H](C)[C@@H](O)[C@@H](C)[C@H](OC(=O)CC(=O)OCCc2ccccc2)[C@@H]1C)C4=O [Compound 31]
- MIC [1]: 1 µg/mL (≈ 1 µM)
- MIC [2]: 0.125 µg/mL
- MIC [3]: 4 µg/mL

SMILES: COCCCNC(=O)CC(=O)O[C@H]1[C@H](C)[C@H](O)[C@H](C)[C@@H](O)[C@@H](C)/C=C/C=C(/C)C(=O)NC2=C3NC4(CCN(CC(C)C)CC4)N=C3c3c(c(O)c(C)c4c3C(=O)[C@@](C)(O/C=C/[C@H](OC)[C@H]1C)O4)C2=O [Compound 34]
- MIC [1]: 0.016 µg/mL (≈ 0.0166 µM)
- MIC [2]: ≤ 0.002 µg/mL
- MIC [3]: 1 µg/mL

SMILES: CO[C@H]1/C=C/O[C@@]2(C)Oc3c(C)c(O)c4c(c3C2=O)C2=NC3(CCN(CC(C)C)CC3)NC2=C(NC(=O)/C(C)=C\C=C\[C@H](C)[C@H](O)[C@@H](C)[C@@H](O)[C@@H](C)[C@H](OC(=O)CC(=O)Nc2ccc(CN3CCN(C)CC3)cc2)[C@@H]1C)C4=O [Compound 36]
- MIC [1]: 0.016 µg/mL (≈ 0.0148 µM)
- MIC [2]: ≤ 0.002 µg/mL
- MIC [3]: 1 µg/mL

SMILES: CO[C@H]1/C=C/O[C@@]2(C)Oc3c(C)c(O)c4c(c3C2=O)C2=NC3(CCN(CC(C)C)CC3)NC2=C(NC(=O)/C(C)=C\C=C\[C@H](C)[C@H](O)[C@@H](C)[C@@H](O)[C@@H](C)[C@H](OC(=O)C(C)C(=O)N2CCCCC2)[C@@H]1C)C4=O (stereo partly drawn) [Compound 37]
- MIC [1]: 0.03 µg/mL (≈ 0.0309 µM)
- MIC [2]: ≤ 0.002 µg/mL
- MIC [3]: 0.5 µg/mL

From patent publication US20250051356A1, “RIFABUTIN ANALOGS FOR THE TREATMENT OF DISEASE” (priority 2021, published 2025)
